Read-outs that look alike come from different tables or passages of the source. No end group written: not given here.
Assays:
[1] = target: HLA-DR DRB1*1302 (DR13) (Homo sapiens, UniProt P01903+P01911, A100E/A169T/K41T/L162R/M171V/P40S/Q125H/Q178H/Q39Y/Q99D/R42S/S66N/T262R/V115G/W38E/Y61H); assay: biochemical; assay type: binding; conditions: DRBI *1302
[2] = target: HLA-DR DRB1*0901 (DR9) (Homo sapiens, UniProt P01903+P01911, A100R/A103E/D57H/D86V/F55Y/F60I/F76Y/I96F/K127E/L162R/M171V/P40D/Q125H/Q99R/R33Q/R42F/S133A/S66N/T210M/V115G/W38K/Y107V/Y59G/Y89S); assay: biochemical; assay type: binding; conditions: DRB1 *0901
[3] = target: HLA-DR DRB3*0101 (DR52) (Homo sapiens, UniProt P01903+P79483); assay: biochemical; assay type: binding
[4] = target: HLA-DR DRB1*0301 (DR3) (Homo sapiens, UniProt P01903+P01911, A100K/A102G/A103R/A169T/F55Y/I96L/K41T/L162R/M171V/P40S/Q125H/Q178H/Q39Y/R42S/S66N/T106N/T262R/W38E/Y61H); assay: biochemical; assay type: binding
[5] = target: HLA-DR DRB4*0101 (DR53) (Homo sapiens, UniProt P01903+P13762, G164S); assay: biochemical; assay type: binding; conditions: DRB4 *0101
[6] = target: HLA-DR DRB1*1101 (DR11) (Homo sapiens, UniProt P01903+P01911, A100R/A169T/A87E/I96F/K41T/L162R/M171V/P40S/Q125H/Q178H/Q39Y/Q99D/R42S/S66Y/T262R/V115G/W38E); assay: biochemical; assay type: binding
[7] = target: HLA-DR DRB1*0401 (DR4) (Homo sapiens, UniProt P01903+P01911, A100K/A169T/F76Y/I96L/K127E/L162R/M171V/N62H/P40V/Q125Y/R42H/S133A/S149N/S66Y/V115G/V209L/W38E); assay: biochemical; assay type: binding
[8] = target: HLA-DQ DQA1*0301/B*0301 (DQ7) (Homo sapiens, UniProt P01909+P01920, A209T/C70Q/DUP78-78/E183D/F237L/G63E/I129T/K197E/L178F/L74F/L98V/Q57E/Q76R/S185I/S97I/T49S/V73L); assay: biochemical; assay type: binding
[9] = target: HLA-DR DRB1*0405 (DR4) (Homo sapiens, UniProt P01903+P01911, A100R/A169T/D86S/F76Y/I96L/K127E/L162R/M171V/N62H/P40V/Q125Y/R42H/S133A/S149N/S66Y/V115G/V209L/W38E); assay: biochemical; assay type: binding; conditions: DRB1 *0405
[10] = target: HLA-DQ DQA1*0501/B*0201 (DQ2) (Homo sapiens, UniProt P01909+P01920, A45G/A70V/D89A/E106A/E77G/E98D/H199R/L107V/N214S/P84L/P87L/T103K/T109R/T172A/T60S/V78E/V99I/Y58L/Y62S/Y69I/Y79F); assay: biochemical
[11] = target: HLA-DR DRB1*0802 (DR8) (Homo sapiens, UniProt P01903+P01911, A100R/A103L/A169T/F76Y/H45Y/I96F/K41T/L162R/M171V/P40S/Q125H/Q178H/Q39Y/Q99D/R218S/R42G/S66Y/V115G/W38E); assay: biochemical; assay type: binding
[12] = target: HLA-DQ DQA1*0301/B*0302 (DQ8) (Homo sapiens, UniProt P01909+P01920, A209T/A45G/C70Q/D89A/DUP78-78/E183D/E77G/F237L/G63E/H199R/I129T/K197E/L178F/L74F/L98V/Q57E/Q76R/S185I/S97I/T217I/T49S/V73L/Y58L); assay: biochemical
[13] = target: HLA-DR DRB1*0101 (DR1) (Homo sapiens, UniProt P01903+P01911, A100R/D57E/F55L/F60I/F76Y/I96L/L162R/M171V/P40L/Q125E/R42F/V115G/Y59C); assay: biochemical; assay type: binding
[14] = target: HLA-DR DRB1*0701 (DR7) (Homo sapiens, UniProt P01903+P01911, A100R/A102G/A103Q/D57E/D86V/E43K/F76Y/K127E/L162R/M171V/P40G/Q125H/Q99D/R33Q/R42Y/R54Q/S133A/S66F/T210M/V115G/Y107V/Y59L/Y89S); assay: biochemical; assay type: binding; conditions: DRB1 *0701
[15] = test system: HLA-DR DRB5*0201; assay type: binding, human; conditions: read-out: DRB5 *0201
[16] = target: HLA-DR DRB5*0101 (DR51) (Homo sapiens, UniProt P01903+Q30154); assay: biochemical; assay type: binding
[17] = target: HLA-DR DRB1*1501 (DR15) (Homo sapiens, UniProt P01903+P01911); assay: biochemical; assay type: binding; conditions: DRBI *1501

Chain of HLA-DR DRB1*0301 (DR3) (P01903 26-254 limits assumed, other chains not shown): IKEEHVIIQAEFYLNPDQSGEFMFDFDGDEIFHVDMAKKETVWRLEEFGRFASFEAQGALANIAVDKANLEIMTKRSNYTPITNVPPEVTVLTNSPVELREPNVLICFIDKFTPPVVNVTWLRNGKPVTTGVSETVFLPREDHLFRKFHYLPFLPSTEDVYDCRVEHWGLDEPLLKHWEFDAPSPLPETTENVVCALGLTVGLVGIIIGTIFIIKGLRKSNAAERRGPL
Chain of HLA-DR DRB1*1302 (DR13) (P01903 26-254 limits assumed, other chains not shown): as above
Chain of HLA-DR DRB1*1101 (DR11) (P01903 26-254 limits assumed, other chains not shown): as above

Substance | IC50 [1] | IC50 [2] | IC50 [3] | IC50 [4] | IC50 [5] | IC50 ([6]; DRB1 *1101) | IC50 ([7]; DRB1 *0401) | IC50 [8] | IC50 [9] | IC50 [10] | IC50 [11] | IC50 [12] | IC50 ([13]; DRB1 *0101) | IC50 [14] | IC50 ([6]; read-out: DRB1 *1101) | IC50 [15] | IC50 ([16]; read-out: DRB5 *0101) | IC50 ([16]; DRB5 *0101) | other results
GLALLSEAVLRGQAL [GLALLSEAVLRGQAL] | 1.22 µM | 15.1 µM | > 38.2 µM | 0.816 µM | 0.0035 µM | 2.58 µM | 0.011 µM | 0.107 µM | 1.44 µM | 6.74 µM | 2 µM | 17 µM | 0.083 µM | 4.61 µM | – | – | – | – | –
(15A)RQTTLKAAA | – | – | – | – | – | – | – | – | – | – | – | – | – | – | 0.0018 µM | 3.1 µM | 0.0095 µM | – | IC50 ([7]; read-out: DRB1 *0401): 0.00031 µM; IC50 ([13]; read-out: DRB1 *0101): 0.0042 µM
YAR(15A)SQTTLKAKT | – | – | – | – | – | – | – | – | – | – | – | – | – | – | 0.0025 µM | 0.048 µM | 0.0014 µM | – | IC50 ([7]; read-out: DRB1 *0401): 0.00078 µM; IC50 ([13]; read-out: DRB1 *0101): 0.0024 µM
YAR(15A)RQTTLKAAA | – | – | – | – | – | – | – | – | – | – | – | – | – | – | 0.0012 µM | 0.062 µM | 0.00094 µM | – | –
WKRMEVGQQAVEVWQ | 0.159 µM | 14.7 µM | > 42.2 µM | – | – | 0.512 µM | 0.024 µM | 13.7 µM | 0.094 µM | 0.159 µM | – | 12.1 µM | 0.062 µM | 46.1 µM | – | – | – | 4.3 µM | –
IDVWLGGLAENFLPY | – | – | – | – | – | – | – | 0.204 µM | – | 0.013 µM | – | 0.138 µM | – | – | – | – | – | – | –
ISLLLIQSWLEPVQF | 0.12 µM | – | 6.76 µM | 27.9 µM | 0.0025 µM | 2.68 µM | 0.885 µM | > 89.3 µM | 0.00086 µM | 5.23 µM | > 33.3 µM | 0.562 µM | 0.184 µM | 0.083 µM | – | – | – | > 9.96 µM | IC50 [17]: 0.06 µM
GSHLVEALYLVCGER | 8.03 µM | 5.39 µM | > 18.7 µM | > 187 µM | 0.372 µM | > 10.5 µM | 8.29 µM | > 89.3 µM | 4.61 µM | 0.677 µM | > 54.4 µM | 2.49 µM | 0.525 µM | 0.56 µM | – | – | – | 29.3 µM | IC50 [17]: 1.35 µM
